Patent publication US20110212950A1, “4,4-DISUBSTITUTED PIPERIDINES” (NOVARTIS AG, priority 2007, published 2011)

Target: T1, renin (Homo sapiens, UniProt P00797)
T1 construct: This test measures the formation of angiotensin I in human plasma; from tissue; host or cells: human plasma
T1 sequence (P00797 67-406): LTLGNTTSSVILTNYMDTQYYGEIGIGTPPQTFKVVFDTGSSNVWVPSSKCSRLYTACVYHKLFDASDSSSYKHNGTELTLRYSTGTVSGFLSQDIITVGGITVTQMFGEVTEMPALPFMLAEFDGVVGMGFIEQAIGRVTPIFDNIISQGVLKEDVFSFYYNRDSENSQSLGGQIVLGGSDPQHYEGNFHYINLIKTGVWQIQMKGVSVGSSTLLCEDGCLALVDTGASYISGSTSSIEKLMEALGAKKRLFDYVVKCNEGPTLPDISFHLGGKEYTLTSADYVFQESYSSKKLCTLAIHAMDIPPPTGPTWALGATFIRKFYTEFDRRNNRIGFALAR
Test: in vitro test of Nussberger et al.: formation of angiotensin I in human plasma (radioimmunoassay)
Assay type: biochemical
Conditions: inhibition of formation of angiotensin I in human plasma
Method: The effect of renin inhibitors is detected inter alia experimentally by means of in vitro tests where the reduction in the formation of angiotensin I is measured in various systems (human plasma, purified human renin together with synthetic or natural renin substrate). The following in vitro test of Nussberger et al. (1987) J. Cardiovascular Pharmacol., Vol. 9, pp. 39-44, is used inter alia. This test measures the formation of angiotensin I in human plasma. The amount of angiotensin I formed is determined in a subsequent radioimmunoassay. The effect of inhibitors on the formation of angiotensin I is tested in this system by adding various concentrations of these substances. The IC50 is defined as the concentration of the particular inhibitor which reduces the formation of angiotensin I by 50%. The compounds of the present invention show inhibitory effects in the in vitro systems at minimal concentrations of about 10^−6 to about 10^−10 mol/I.

SMILES	IC50 [nM]
COCCCN1CCOc2ccc(CO[C@H]3CNCC[C@]3(O)c3ccc(COCCOC)cc3)cc21 [Example 361, (3S,4S)-4-[4-(2-Methoxy-ethoxymethyl)-phenyl]-3-[4-(3-methoxy-propyl)-3,4-dihydro-2H-benzo[1,4]oxazin-6-ylmethoxy]-piperidin-4-ol]	40.4
COCCCN1CCOc2ccc(CO[C@H]3CNCC[C@]3(O)c3ccc(COC[C@@H](C)Cn4cnnn4)cc3)cc21 [Example 371, (3S,4S)-3-[4-(3-Methoxy-propyl)-3,4-dihydro-2H-benzo[1,4]oxazin-6-ylmethoxy]-4-[4-((S)-2-methyl-3-tetrazol-1-yl-propoxymethyl)-phenyl]-piperidin-4-ol]	123
CCO[C@H](C)COCc1ccc([C@@]2(O)CCNC[C@@H]2OCc2ccc3c(c2)N(CCCOC)CCO3)c(OCCOC)c1 [Example 375, (3S,4S)-4-[4-((R)-2-Ethoxy-propoxymethyl)-2-(2-methoxy-ethoxy)-phenyl]-3-[4-(3-methoxy-propyl)-3,4-dihydro-2H-benzo[1.4]oxazin-6-ylmethoxy]-piperidin-4-ol]	84.3
CCO[C@H](C)COCc1ccc([C@@]2(O)CCNC[C@@H]2OCc2ccc3c(c2)N(CCCOC)CCO3)c(CCOC)c1 [Example 378, (3S,4S)-4-[4-((R)-2-Ethoxy-propoxymethyl)-2-(2-methoxy-ethyl)-phenyl]-3-[4-(3-methoxy-propyl)-3,4-dihydro-2H-benzo[1,4]oxazin-6-ylmethoxy]-piperidin-4-ol]	9.6
